From ChEMBL document CHEMBL1132928 (J Med Chem, 2000)
Activity calls are given as the source filed them. The rule behind the calls is not given here. Where a SMILES comes first, the peptide text is derived from it. Bridges are numbered along the chain shown (N, C = ends).

Tests used:
[1] = biological target: Adenylate cyclase type 5 (Rattus norvegicus) (UniProt Q04400); assay: Percent stimulation ofcAMP production was measured in vitro using rat liver plasma membrane bioassay; none; assay type: functional, cell-free
[2] = biological target: Glucagon receptor (Rattus norvegicus) (UniProt P30082); assay: In vitro receptor binding affinity using rat liver plasma membrane bioassay; inactive
[3] = In vitro adenylate cyclase activity using rat liver plasma membrane bioassay. Value is inactive up to 50 uM
[4] = pA2 values were obtained from the dose / response plots; assay type: ADME
Glucagon receptor = Glucagon receptor (Rattus norvegicus, UniProt P30082); assay: In vitro receptor binding affinity (95% CL) using rat liver plasma membrane bioassay
[5] = biological target: Adenylate cyclase type 5 (Rattus norvegicus) (UniProt Q04400); assay: Percent stimulation ofcAMP production was measured in vitro using rat liver plasma membrane bioassay; assay type: functional, cell-free
[6] = In vitro adenylate cyclase activity using rat liver plasma membrane bioassay; assay type: tissue-based

Adenylate cyclase type 5 (Rattus norvegicus), sequence (Q04400 whole entry): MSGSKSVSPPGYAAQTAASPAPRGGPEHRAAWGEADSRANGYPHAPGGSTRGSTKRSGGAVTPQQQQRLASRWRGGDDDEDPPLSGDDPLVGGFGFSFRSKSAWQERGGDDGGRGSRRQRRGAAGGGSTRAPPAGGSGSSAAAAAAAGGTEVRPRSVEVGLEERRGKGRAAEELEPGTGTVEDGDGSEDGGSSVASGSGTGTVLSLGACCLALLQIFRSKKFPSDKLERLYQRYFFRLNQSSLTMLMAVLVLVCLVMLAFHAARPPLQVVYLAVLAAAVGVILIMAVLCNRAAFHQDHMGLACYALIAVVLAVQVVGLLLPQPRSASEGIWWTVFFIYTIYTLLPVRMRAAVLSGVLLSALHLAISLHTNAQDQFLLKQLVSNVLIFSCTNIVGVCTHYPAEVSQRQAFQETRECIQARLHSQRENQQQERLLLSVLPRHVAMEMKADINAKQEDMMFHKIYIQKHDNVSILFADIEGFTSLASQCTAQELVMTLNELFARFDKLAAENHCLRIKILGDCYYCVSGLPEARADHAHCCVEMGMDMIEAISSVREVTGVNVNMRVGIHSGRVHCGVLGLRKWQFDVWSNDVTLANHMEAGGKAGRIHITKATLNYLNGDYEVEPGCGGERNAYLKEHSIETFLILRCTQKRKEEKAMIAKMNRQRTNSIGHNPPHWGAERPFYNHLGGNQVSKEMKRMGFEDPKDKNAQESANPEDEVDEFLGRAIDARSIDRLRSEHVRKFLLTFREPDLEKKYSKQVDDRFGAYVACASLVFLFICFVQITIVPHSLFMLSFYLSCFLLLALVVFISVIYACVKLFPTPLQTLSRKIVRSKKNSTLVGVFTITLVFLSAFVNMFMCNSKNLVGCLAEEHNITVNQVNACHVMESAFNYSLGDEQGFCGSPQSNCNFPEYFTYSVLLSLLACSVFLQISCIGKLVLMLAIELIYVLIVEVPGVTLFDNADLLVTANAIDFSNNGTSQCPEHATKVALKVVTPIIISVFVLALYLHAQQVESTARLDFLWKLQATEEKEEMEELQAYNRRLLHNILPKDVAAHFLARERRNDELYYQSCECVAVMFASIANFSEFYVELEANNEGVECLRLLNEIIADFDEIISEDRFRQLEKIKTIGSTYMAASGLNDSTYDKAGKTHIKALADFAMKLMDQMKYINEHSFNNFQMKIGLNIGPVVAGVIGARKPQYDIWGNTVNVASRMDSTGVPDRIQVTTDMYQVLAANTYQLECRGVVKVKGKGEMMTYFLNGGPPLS
Glucagon receptor, sequence (P30082 whole entry): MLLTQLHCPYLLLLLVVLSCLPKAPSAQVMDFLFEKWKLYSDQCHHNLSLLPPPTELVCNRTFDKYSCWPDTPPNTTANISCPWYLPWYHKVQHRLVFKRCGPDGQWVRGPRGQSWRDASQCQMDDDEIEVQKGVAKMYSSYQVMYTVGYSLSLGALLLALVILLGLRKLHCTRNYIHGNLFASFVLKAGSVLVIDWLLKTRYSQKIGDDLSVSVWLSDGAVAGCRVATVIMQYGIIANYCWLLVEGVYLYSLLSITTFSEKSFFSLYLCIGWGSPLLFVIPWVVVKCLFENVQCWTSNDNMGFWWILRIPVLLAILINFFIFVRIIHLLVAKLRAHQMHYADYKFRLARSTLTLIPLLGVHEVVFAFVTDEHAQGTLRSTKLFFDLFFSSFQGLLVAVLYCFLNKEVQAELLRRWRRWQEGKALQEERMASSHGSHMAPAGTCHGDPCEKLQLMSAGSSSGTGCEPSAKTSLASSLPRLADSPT
Glucagon receptor (Rattus norvegicus), sequence (P30082 whole entry): as above

Compound | IC50 (Glucagon receptor) | Max stimulation [5] | Potency [6] | further results
CSCC[C@H](NC(=O)[C@H](CC(C)C)NC(=O)[C@H](Cc1c[nH]c2ccccc12)NC(=O)[C@H](CCC(N)=O)NC(=O)[C@@H](NC(=O)[C@@H](Cc1ccccc1)NC(=O)[C@@H]1CCC(=O)NCCCC[C@H](NC(=O)[C@H](CO)NC(=O)[C@@H](CC(=O)O)NC(=O)[C@@H](CC(C)C)NC(=O)[C@H](Cc2ccc(O)cc2)NC(=O)[C@H]2CCCCNC(=O)C[C@H](NC(=O)[C@H](CO)NC(=O)[C@H](NC(=O)[C@@H](Cc3ccccc3)NC(=O)[C@H](NC(=O)CNC(=O)[C@@H](CCC(N)=O)NC(=O)[C@@H](CO)NC(=O)[C@H](N)Cc3c[nH]cn3)[C@H](C)O)[C@H](C)O)C(=O)N[C@@H](Cc3ccc(O)cc3)C(=O)N[C@H](CO)C(=O)N2)C(=O)N[C@@H](CCCCN)C(=O)N[C@H](C)C(=O)N[C@@H](CCC(N)=O)C(=O)N1)C(C)C)C(=O)N[C@@H](CC(N)=O)C(=O)N[C@H](C(N)=O)[C@@H](C)O |  |  |  | Max stimulation [1]: inactive; IA [2]: inactive; Potency [3]: Inactive up to 50 uM
CSCC[C@H](NC(=O)[C@H](CC(C)C)NC(=O)[C@H](Cc1c[nH]c2ccccc12)NC(=O)[C@H](CCC(N)=O)NC(=O)[C@@H](NC(=O)[C@H](Cc1ccccc1)NC(=O)[C@H](CCC(=O)O)NC(=O)[C@H](CCC(N)=O)NC(=O)[C@H](C)NC(=O)[C@H](CCCCN)NC(=O)[C@H](CCCCN)NC(=O)[C@H](CO)NC(=O)[C@H](CC(=O)O)NC(=O)[C@H](CC(C)C)NC(=O)[C@H](Cc1ccc(O)cc1)NC(=O)[C@@H]1CCCCNC(=O)C[C@H](NC(=O)[C@H](CO)NC(=O)[C@@H](NC(=O)[C@H](Cc2ccccc2)NC(=O)[C@@H](NC(=O)CNC(=O)[C@H](CCC(N)=O)NC(=O)[C@H](CO)NC(=O)[C@@H](N)Cc2cnc[nH]2)[C@@H](C)O)[C@@H](C)O)C(=O)N[C@@H](Cc2ccc(O)cc2)C(=O)N[C@@H](CO)C(=O)N1)C(C)C)C(=O)N[C@@H](CC(N)=O)C(=O)N[C@H](C(N)=O)[C@@H](C)O (H-HSQGTFTSDYSKYLDSKKAQEFVQWLMNT-NH2; lactam 9-12) | 250 nM |  |  | pA2 [4]: 6.3
CSCC[C@H](NC(=O)[C@H](CC(C)C)NC(=O)[C@H](Cc1c[nH]c2ccccc12)NC(=O)[C@H](CCC(N)=O)NC(=O)[C@@H](NC(=O)[C@H](Cc1ccccc1)NC(=O)[C@@H]1CCC(=O)NCCCC[C@H](NC(=O)[C@H](CCCCN)NC(=O)[C@H](CO)NC(=O)[C@H](CC(=O)O)NC(=O)[C@H](CC(C)C)NC(=O)[C@H](Cc2ccc(O)cc2)NC(=O)[C@H](CCCCN)NC(=O)[C@H](CO)NC(=O)[C@H](Cc2ccc(O)cc2)NC(=O)[C@H](CC(=O)O)NC(=O)[C@H](CO)NC(=O)[C@@H](NC(=O)[C@H](Cc2ccccc2)NC(=O)[C@@H](NC(=O)CNC(=O)[C@H](CCC(N)=O)NC(=O)[C@H](CO)NC(=O)[C@@H](N)Cc2c[nH]cn2)[C@@H](C)O)[C@@H](C)O)C(=O)N[C@@H](C)C(=O)N[C@@H](CCC(N)=O)C(=O)N1)C(C)C)C(=O)N[C@@H](CC(N)=O)C(=O)N[C@H](C(N)=O)[C@@H](C)O | 54 nM |  |  | EC50 (Glucagon receptor): 320 nM
GLUCAGON |  | 100% | 100% | 
CSCC[C@@H](NC(=O)[C@@H](CC(C)C)NC(=O)[C@@H](Cc1c[nH]c2ccccc12)NC(=O)[C@@H](CCC(N)=O)NC(=O)[C@H](NC(=O)[C@H](Cc1ccccc1)NC(=O)[C@H]1CCC(=O)NCCCC[C@H](NC(=O)[C@H](CCCCN)NC(=O)[C@@H](CO)NC(=O)[C@@H](CC(=O)O)NC(=O)[C@@H](CC(C)C)NC(=O)[C@@H](Cc2ccc(O)cc2)NC(=O)[C@@H](CCCCN)NC(=O)[C@@H](CO)NC(=O)[C@@H](Cc2ccc(O)cc2)NC(=O)[C@@H](CC(=O)O)NC(=O)[C@@H](CO)NC(=O)[C@H](NC(=O)[C@@H](Cc2ccccc2)NC(=O)[C@H](NC(=O)CNC(=O)[C@@H](CCC(N)=O)NC(=O)[C@@H](CO)NC(=O)[C@H](N)Cc2c[nH]cn2)[C@H](C)O)[C@H](C)O)C(=O)N[C@@H](C)C(=O)N[C@H](CCC(N)=O)C(=O)N1)C(C)C)C(=O)N[C@H](CC(N)=O)C(=O)N[C@@H](C(N)=O)[C@H](C)O |  | 60% | 1.6% | 
